Earlier results on two compounds are cited in patent US20220040156A1, “COMPOSITIONS, DEVICES AND METHODS FOR TREATING OBSESSIVE-COMPULSIVE DISORDER” (CENTRE FOR DIGESTIVE DISEASES, priority 2017, published 2022).

In this series the test system is children with autism / autistic symptoms. Particulars: reports of Sandler et al. 2000, Rodakis 2015 and unreferenced observations.

Take `CC1(C)S[C@@H]2[C@H](NC(=O)[C@H](N)c3ccc(O)cc3)C(=O)N2[C@H]1C(=O)O` [amoxycillin]: the “effect on behavioural changes / autistic symptoms” value was “reversed almost completely”.

On to `CN[C@H](CC(C)C)C(=O)N[C@H]1C(=O)N[C@@H](CC(N)=O)C(=O)N[C@H]2C(=O)N[C@H]3C(=O)N[C@H](C(=O)N[C@H](C(=O)O)c4cc(O)cc(O)c4-c4cc3ccc4O)[C@H](O)c3ccc(c(Cl)c3)Oc3cc2cc(c3O[C@@H]2O[C@H](CO)[C@@H](O)[C@H](O)[C@H]2O[C@H]2C[C@](C)(N)[C@H](O)[C@H](C)O2)Oc2ccc(cc2Cl)[C@H]1O` [vancomycin], for which the “effect on behavioural changes / autistic symptoms” value was “reversal of behavioural changes and progress to normality within a few weeks”.
